In the PolyMetriX glass transition set:
Structures can show the parent of a compound that is named as a salt. ± gives the standard deviation of the reports.

Compound | glass transition temperature
*c1ccc(Oc2ccc(C(=O)c3cccc(C(=O)c4ccc(Oc5ccc(-c6nc(-c7cccc(-c8nc(*)c(-c9ccccc9)[nH]8)c7)[nH]c6-c6ccccc6)cc5)cc4)c3)cc2)cc1 (repeat unit) | 256.50 °C
*c1ccc2c(c1)C(=O)N(c1c(C)cc(C3(c4cc(C)c(N5C(=O)c6ccc(C(*)(C(F)(F)F)C(F)(F)F)cc6C5=O)c(C(C)C)c4)c4ccccc4-c4ccccc43)cc1C(C)C)C2=O (repeat unit) | 335.00 °C
*C(=O)c1cc(C(=O)c2ccc3c(c2)C(=O)N(c2cccc(N4C(=O)c5ccc(*)cc5C4=O)c2)C3=O)cc(C(C)(C)C)c1 (repeat unit) | 264.50 °C
*/C=C/C1CC(*)C2C(=O)N(c3cccc(C)c3)C(=O)C12 (repeat unit) | 206.00 °C
*CC(*)c1ccc(CCCCCCCCC)cc1 (repeat unit) | -53.00 °C
*CCOCCOCCOc1ccc(/C=C/c2ccc(/C=C/c3ccc(O*)c4ccccc34)cc2)c2ccccc12 (repeat unit) | 83.50 °C
*CC(O)COc1ccc(C(C)(C)c2ccc(O*)c(Cl)c2)cc1Cl (repeat unit) | 85.00 °C
*Oc1ccc(CC(NC(=O)CCc2ccc(OC(=O)CCCC(*)=O)cc2)C(=O)OCCCCCCCCCCCC)cc1 (repeat unit) | 27.50 °C
*CC(*)C(=O)OCCCCCCCOC(=O)c1ccc(OC(=O)c2ccc(C#N)cc2)cc1 (repeat unit) | 20.00 °C
*c1ccc2c(c1)C(=O)N(c1ccc(Oc3ccc(Oc4ccc(N5C(=O)c6ccc(C(*)(C(F)(F)F)C(F)(F)F)cc6C5=O)cc4)cc3)c(C(F)(F)F)c1)C2=O (repeat unit) | 260.80 °C
*CCSSSSCCO* (repeat unit) | -40.00 °C
*c1ccc(-c2ccc3c(c2)C(CCCCCCCC)(CCCCCCCC)c2cc(-c4ccc(N(*)c5ccc(N(c6ccc(C(C)(C)c7ccccc7)cc6)c6ccc(C(C)(C)c7ccccc7)cc6)cc5)cc4)ccc2-3)cc1 (repeat unit) | 137.00 °C
*C1C(=O)N(c2ccc(O[Si](c3ccccc3)(c3ccccc3)c3ccccc3)cc2)C(=O)C1* (repeat unit) | 183.00 °C
*Oc1cccc(S(=O)(=O)c2ccc(*)cc2)c1 (repeat unit) | 175.00 °C
*/C=C/C(COCc1ccccc1)C(*)COCc1ccccc1 (repeat unit) | -4.00 °C
*C1C(=O)N(c2ccc(O[Si](C)(C)C(C)(C)C)cc2)C(=O)C1* (repeat unit) | 169.00 °C
*c1ccc(-c2ccc(N(*)c3ccc(C(F)(F)F)cc3)cc2)cc1 (repeat unit) | 225.00 °C
*CC(*)c1ccc(COCCO)cc1 (repeat unit) | 46.00 °C
*Oc1cccc(*)c1 (repeat unit) | 53.00 °C
*CC(*)c1ccc(C(C)=O)cc1 (repeat unit) | 115.50 °C
*C(=O)Nc1cccc(NC(=O)c2ccc3c(c2)C(=O)N(c2cccc(N4C(=O)c5ccc(*)cc5C4=O)c2)C3=O)n1 (repeat unit) | 339.00 °C
*c1ccc(O)c(N2C(=O)c3ccc(Oc4ccc(C(C)(C)c5ccc(Oc6ccc7c(c6)C(=O)N(*)C7=O)cc5)cc4)cc3C2=O)c1 (repeat unit) | 246.00 °C
*Oc1c(C)cc(-c2cc(C)c(Oc3ccc(C(=O)c4ccccc4-c4ccccc4C(=O)c4ccc(*)cc4)cc3)c(C)c2)cc1C (repeat unit) | 233.00 °C

Compound | glass transition temperature
*N=P(N=P(/N=S(/*)Oc1ccc(-c2ccccc2)cc1)(Oc1ccc(-c2ccccc2)cc1)Oc1ccc(-c2ccccc2)cc1)(Oc1ccc(-c2ccccc2)cc1)Oc1ccc(-c2ccccc2)cc1 (repeat unit) | 69.00 °C
*O[Si](*)(C)OCCOCCOCCOC (repeat unit) | -120.10 °C
*c1ccc(Oc2ccc(-c3c(-c4ccccc4)nc4ccc(Oc5ccc6nc(-c7ccccc7)c(*)c(-c7ccccc7)c6c5)cc4c3-c3ccccc3)cc2)cc1 (repeat unit) | 252.50 °C
*CC(*)c1cccc(C)n1 (repeat unit) | 92.00 °C
*CC/C=C(/*)C(C)(C)C (repeat unit) | 20.00 °C
*Nc1ccc(*)cc1OCCCCCCCCCC (repeat unit) | 77.00 °C
*Oc1ccc(Sc2ccc(Oc3ccc4c(=O)n5c6cc(-c7ccc8c(c7)nc7c9ccc(*)c%10cccc(c(=O)n87)c%109)ccc6nc5c5cccc3c45)cc2)cc1 (repeat unit) | 386.00 °C
*c1ccc(Oc2cccc(Oc3ccc(N4C(=O)c5cccc(Oc6ccc(Oc7cccc8c7C(=O)N(*)C8=O)cc6)c5C4=O)cc3)c2)cc1 (repeat unit) | 214.00 °C
*Cc1ccc(CSSSS*)cc1 (repeat unit) | 3.00 °C
*CCCCCCCCCCCCCCCCCCCCOC(=O)CC(=O)O* (repeat unit) | -35.10 °C
*c1ccc(/C=N/c2cccc(/N=C/c3ccc(-c4ccc(*)s4)cc3)c2)cc1 (repeat unit) | 150.00 °C
*c1ccc(-c2ccc(-c3ccc([Si](C)(C)[Si](*)(C)C)s3)s2)s1 (repeat unit) | 45.00 °C
*Oc1ccc(Oc2ccc(C(=O)c3ccc(P(=O)(c4ccccc4)c4ccc(C(=O)c5ccc(*)cc5)cc4)cc3)cc2)cc1 (repeat unit) | 207.00 °C
*Cc1cc(C(C)(C)C)cc(*)c1O (repeat unit) | 50.00 °C
*CC(*)C(=O)OCCC(F)(F)C(F)(F)C(F)(F)C(F)(F)C(F)(F)C(F)(F)C(F)(F)C(F)(F)F (repeat unit) | 52.00 °C
*CCCCCCN(CC(F)(F)C(F)(F)C(F)(F)C(F)(F)C(F)(F)C(F)(F)C(F)(F)F)C(=O)C(F)(F)C(F)(F)C(F)(F)C(=O)N(*)CC(F)(F)C(F)(F)C(F)(F)C(F)(F)C(F)(F)C(F)(F)C(F)(F)F (repeat unit) | 187.50 °C
*CC(*)c1ccccc1C(=O)N(C)C (repeat unit) | 190.00 °C
*C(=O)c1ccc2c(c1)C(=O)N(c1ccc(OCC(C)(C)COc3ccc(N4C(=O)c5ccc(*)cc5C4=O)cc3)cc1)C2=O (repeat unit) | 234.00 °C
*C(=O)Nc1ccc(Oc2ccc(C(=O)c3ccc(Oc4ccc(NC(=O)c5ccc(*)nc5)cc4)cc3)cc2)cc1 (repeat unit) | 170.00 °C
*Nc1ccc(NC(=O)Cc2cc(C)c(CC(*)=O)cc2C)cc1 (repeat unit) | 175.00 °C
*CCCCCCCCCOC(=O)C(O)C(O)C(=O)O* (repeat unit) | -11.00 °C
*OC(*)CCCCCC (repeat unit) | -116.00 °C
*CCCCCCCCCCCCCCNC(=O)CCCCCCCCCCCCCCCCC(=O)N* (repeat unit) | 48.00 °C

Compound | glass transition temperature
*C(=O)c1ccc2c(c1)C(=O)N(c1ccc(Oc3cc(C(C)(C)C)c(Oc4ccc(N5C(=O)c6ccc(*)cc6C5=O)cc4)cc3C(C)(C)C)cc1)C2=O (repeat unit) | 288.00 °C
*CCCCCCOC(=O)NCCCCNC(=O)O* (repeat unit) | 16.00 °C
*CN1C(=O)c2ccc(C(c3ccc4c(c3)C(=O)N(Cc3nc5ccc(Cc6ccc7nc(*)oc(=O)c7c6)cc5c(=O)o3)C4=O)(C(F)(F)F)C(F)(F)F)cc2C1=O (repeat unit) | 218.00 °C
*c1cccc(P(=O)(c2ccccc2)c2cccc(-n3c(=O)c4cc5c(=O)n(*)c(=O)c5c(-c5ccc(C(F)(F)F)cc5)c4c3=O)c2)c1 (repeat unit) | 321.00 °C
*Nc1ccc(Cc2ccc(NC(=O)c3cc(NC(=O)CCN4C(=O)c5ccccc5C4=O)cc(C(*)=O)c3)cc2)cc1 (repeat unit) | 235.00 °C
*CC(*)c1ccc(OCCOCCOC(C)=O)cc1 (repeat unit) | -3.00 °C
*c1ccc(Oc2ccc(S(=O)(=O)c3ccc(Oc4ccc(-c5nc(-c6cccc(-c7nc(*)c(-c8ccccc8)[nH]7)c6)[nH]c5-c5ccccc5)cc4)cc3)cc2)cc1 (repeat unit) | 292.00 °C
*Oc1ccc(Oc2ccc(/C=N/CC/N=C/c3ccc(*)cc3)cc2)cc1 (repeat unit) | 101.00 °C
*Oc1ccc(/N=C/C=N/c2ccc(OC(=O)Nc3cc(NC(*)=O)ccc3C)cc2)cc1 (repeat unit) | 76.00 °C
*/C=C/C(C*)COCC(=O)OCCCCCCCCOc1ccc(/C=C/c2ccc([N+](=O)[O-])cc2)cc1 (repeat unit) | 23.00 °C
*c1ccc2c(c1)C(=O)N(c1ccc(-c3ccc(N4C(=O)c5ccc(C(*)(C(F)(F)F)C(F)(F)F)cc5C4=O)c(O)c3)cc1O)C2=O (repeat unit) | 358.00 °C
*c1ccc(-c2ccc(-c3cc(-c4ccccc4)c4cc5nc(*)cc(-c6ccccc6)c5cc4n3)cc2)cc1 (repeat unit) | 383.00 °C
*CC(*)NC(=O)OC(C)(C)C (repeat unit) | 120.00 °C
*C1Cc2ccccc2C1* (repeat unit) | 188.50 °C
*CC(O)COC(=O)CCCCC(=O)OCC(O)COc1ccc(O*)cc1 (repeat unit) | 19.00 °C
*CC(*)(C)C(=O)Oc1ccc(/N=N/c2ccc(C#N)cc2)cc1 (repeat unit) | 185.00 °C
*c1ccc(-c2ccc(-n3c(-c4ccc(Oc5ccc(C(=O)c6ccc(C(=O)c7ccc(Oc8ccc(-c9nc%10ccccc%10n9*)cc8)cc7)cc6)cc5)cc4)nc4ccccc43)cc2)cc1 (repeat unit) | 259.00 °C
*/C=C/[Si](*)(c1ccccc1)c1ccccc1 (repeat unit) | -9.00 °C
*CC(*)OC=O (repeat unit) [Poly(vinyl formate)] | 32.4 ± 3.6 °C
*O[Si](C)(C)c1ccc([Si](*)(C)C)cc1 (repeat unit) | -18.00 °C
*Oc1ccc(C(*)=O)cc1 (repeat unit) [Poly(p-hydroxybenzoate)] | 147 ± 8.5 °C
*c1ccc(-c2ccc(-c3nnc(-c4ccc([Si](c5ccccc5)(c5ccccc5)c5ccc(-c6nnc(*)o6)cc5)cc4)o3)cc2)cc1 (repeat unit) | 278.00 °C
